Results on 31 compounds are retold here after patent US7915297B2, “Isoxazole derivatives and use thereof” (SK Holdings Co., Ltd., priority 2005, dated 2011).

In the first test the test system is Wnt/β-catenin signaling (β-catenin activity) in HEK293 cell line. Kind of test: Cell-based Wnt agonist screening, TCF luciferase reporter, HEK293 (TCF-FL). Also noted: species or system human. Conditions: Homo sapiens, HEK293, 24 h, % of LiCl (20 mM), 24 h, Conc. 30 μM, read-out: Max. Activity (%). The text has this:
(§1) In order to measure the in vitro activity of compounds of the present invention, two human cancer cell lines, HEK293 and SW480, which have intact Wnt signaling and show APC gene mutation in the Wnt signaling pathway, respectively, were used.
(§2) For evaluating the activity of wnt/β-catenin signaling in the cancer cell lines, gene as illustrated in FIG. 1 having β-catenin-binding sites of the Tcf/Lef transcriptional control protein (5 sites of TCF, 5X TCF) and having a fire fly luficerase as a marker protein ascertainable the activity of 5X TCF was introduced into the cells. Treatment with G418 led monoclones of the cell lines, in which the genes were permanently expressed, so as to construct a cell-based Wnt agonist screening system. […] For comparison with the activity of the isoxazole derivatives as Wnt agonists, lithium chloride (LiCl), acting as a positive control for the cell-based Wnt agonist screening system, was used to determine the expression level of the luciferase, and the results are shown in FIG. 3.
(§3) The cell lines, in which a cell-based Wnt agonist screening system was constructed, were cultured in RPMI 1640 media supplemented with penicillin-streptomycin (100 Units/mL) and heat-inactivated 5% fetal bovine serum under standard culture conditions (5% CO2, 37° C., 100% relative humidity). […] The suspension was diluted with the same medium to adjust the cell count to 8,000˜15,000 cells per well and was moved then in a 96-well microtiter plate. After being incubated for 24 hrs, the cells were treated with various concentrations of the isoxazole derivatives synthesized in Preparation Examples. Incubation for an additional 24 hours was followed by the quantitative analysis of luciferase activity using a Luciferase Assay kit (Promega, U.S.A.) according to the protocol described in the manual provided by the manufacturer. Data on the activities of the isoxazole derivatives thus synthesized are given in Tables 34 to 43, and are expressed as percentages relative to the activity of the positive control LiCl (20 mM), a well-known agonist of Wnt signaling.
For orientation: In a reporter assay the amount or activity of a reporter protein is the signal.
As for `O=C(Nc1ccccc1O)c1cc(-c2ccco2)on1` [Derivative (2), 5-furan-2-yl-isoxazole-3-carboxylic acid (2-hydroxy-phenyl)-amide], the Emax at 30 µM was below 20%.

For the compound `O=C(NCCc1ccc(O)cc1)c1cc(-c2ccco2)on1` [Derivative (22), 5-furan-2-yl-isoxazole-3-carboxylic acid [2-(4-hydroxy-phenyl)-ethyl]-amide], the Emax at 30 µM is below 20%.

Still in this test, the particulars now being: Homo sapiens, HEK293, 24 h, % of LiCl (20 mM), 24 h, Conc. 60 μM, read-out: Max. Activity (%).
Consider `O=C(NCCc1ccncc1)c1cc(-c2ccco2)on1` [Derivative (12), 5-furan-2-yl-isoxazole-3-carboxylic acid (2-pyridin-4-yl-ethyl)-amide], for which the Emax at 60 µM came to 109%.

The same test, now with this note: Homo sapiens, HEK293, 24 h, % of LiCl (20 mM), 24 h, Conc. 120 μM, read-out: Max. Activity (%).
With `O=C(NCCc1ccccn1)c1cc(-c2ccco2)on1` [Derivative (10), 5-furan-2-yl-isoxazole-3-carboxylic acid (2-pyridin-2-yl-ethyl)-amide], the Emax at 120 µM stood at 32%.

The test system of a further test is Wnt/β-catenin signaling (β-catenin activity) in SW480 cell line. Kind of test: Cell-based Wnt agonist screening, TCF luciferase reporter, SW480 (TCF-FL). Also noted: species or system human. Conditions: Homo sapiens, % of LiCl (20 mM), 24 h, Con. 1 μM, read-out: Max. Activity (%).
Excerpt: as §1, §2, §3
On to `O=C(NCCn1nccn1)c1cc(-c2cccs2)on1` [Derivative (136), 5-thiophen-2-yl-isoxazole-3-carboxylic acid (2-[1,2,3]triazol-2-yl-ethyl)-amide], for which the Emax at 1 µM came to 837%.

Consider `O=C(NCCNc1ccccc1)c1cc(-c2ccco2)on1` [Derivative (195), 5-furan-2-yl-isoxazole-3-carboxylic acid (2-phenylamino-ethyl)-amide], for which the Emax at 1 µM came out at 84%.

Take `O=C(NCCOc1ccccc1)c1cc(-c2ccco2)on1` [Derivative (214), 5-furan-2-yl-isoxazole-3-carboxylic acid (2-phenoxy-ethyl)-amide]: the Emax at 1 µM stood at 161%.

The same test, now with this note: Homo sapiens, % of LiCl (20 mM), 24 h, Con. 10 μM, read-out: Max. Activity (%).
As for `O=C(NCCn1cncn1)c1cc(-c2ccco2)on1` [Derivative (38), 5-furan-2-yl-isoxazole-3-carboxylic acid (2-[1,2,4]triazol-1-yl-ethyl)-amide], the Emax at 10 µM was 551%.

As for `O=C(NCCCn1cncn1)c1cc(-c2ccoc2)on1` [Derivative (153), 5-furan-3-yl-isoxazole-3-carboxylic acid (3-[1,2,4]-triazol-1-yl-propyl)-amide], the Emax at 10 µM amounted to 304%.

Regarding `CN1CCN(C(=O)OCc2cc(-c3ccco3)on2)CC1` [Derivative (253), 4-methyl-piperazine-1-carboxylic acid 5-furan-2-yl-isoxazol-3-ylmethyl ester], the Emax at 10 µM was determined as 66%.

The test is the same for the next values; noted with them: Homo sapiens, % of LiCl (20 mM), 24 h, Con. 30 μM, read-out: Max. Activity (%).
As for `O=C(Nc1ccccc1O)c1cc(-c2ccco2)on1` [Derivative (2), 5-furan-2-yl-isoxazole-3-carboxylic acid (2-hydroxy-phenyl)-amide], the Emax at 30 µM is below 20%.

On to `O=C(NCCn1nccn1)c1cc(-c2ccco2)on1` [Derivative (40), 5-furan-2-yl-isoxazole-3-carboxylic acid (2-[1,2,3]triazol-2-yl-ethyl)-amide], for which the Emax at 30 µM was found to be 896%.

In the case of `O=C(NCCn1ccnn1)c1cc(-c2ccco2)on1` [Derivative (41), 5-furan-2-yl-isoxazole-3-carboxylic acid (2-[1,2,3]triazol-1-yl-ethyl)-amide], the Emax at 30 µM was 676%.

As to `O=C(NCCc1cccnc1)c1cc(-c2ccccc2)on1` [Derivative (71), 5-phenyl-isoxazole-3-carboxylic acid (2-pyridin-3-yl-ethyl)-amide], the Emax at 30 µM worked out at 919%.

`O=C(NCCc1ccc(O)cc1)c1cc(-c2ccccc2)on1` [Derivative (73), 5-phenyl-isoxazole-3-carboxylic acid [2-(4-hydroxy-phenyl)-ethyl]-amide]: the Emax at 30 µM is 853%.

As for `O=C(NCCc1cccnc1)c1cc(-c2cccs2)on1` [Derivative (139), 5-thiophen-2-yl-isoxazole-3-carboxylic acid (2-pyridin-3-yl-ethyl)-amide], the Emax at 30 µM amounted to 922%.

`CN1CCN(CCNC(=O)c2cc(-c3ccco3)on2)CC1` [Derivative (177), 5-furan-2-yl-isoxazole-3-carboxylic acid [2-(4-methyl-piperazin-1-yl)-ethyl]-amide]: the Emax at 30 µM worked out at 582%.

For the compound `O=C(CCNC(=O)c1cc(-c2cccs2)on1)Nc1ccccc1` [Derivative (209), 5-thiophen-2-yl-isoxazole-3-carboxylic acid (2-phenylcarbamoyl-ethyl)-amide], the Emax at 30 µM was 246%.

For the compound `O=C(NCCS(=O)(=O)c1ccccc1)c1cc(-c2cccs2)on1` [Derivative (219), 5-thiophen-2-yl-isoxazole-3-carboxylic acid (2-benzenesulfonyl-ethyl)-amide], the Emax at 30 µM was 113%.

In the case of `O=C(c1cc(-c2cccs2)on1)N1CCN(c2ccccn2)CC1` [Derivative (221), (4-pyridin-2-yl-piperazin-1-yl)-(5-thiophen-2-yl-isoxazol-3-yl)-methanone], the Emax at 30 µM came to 51%.

As for `O=C(c1cc(-c2cccs2)on1)N1CCN(c2ncccn2)CC1` [Derivative (222), (4-pyrimidin-2-yl-piperazin-1-yl)-(5-thiophen-2-yl-isoxazol-3-yl)-methanone], the Emax at 30 µM stood at 57%.

With `O=C(c1cc(-c2cccs2)on1)N1CCC(N2CCCC2)CC1` [Derivative (223), (4-pyrrolidin-1-yl-piperidin-1-yl)-(5-thiophen-2-yl-isoxazol-3-yl)-methanone], the Emax at 30 µM is 50%.

The test is the same for the next values; noted with them: Homo sapiens, % of LiCl (20 mM), 24 h, Con. 120 μM, read-out: Max. Activity (%).
Consider `CN(CCc1ccccn1)C(=O)c1cc(-c2ccco2)on1` [Derivative (61), 5-furan-2-yl-isoxazole-3-carboxylic acid methyl-(2-pyridin-2-yl-ethyl)-amide], for which the Emax at 120 µM was determined as 56%.

Consider `Nc1ccc(-c2cc(C(=O)NCCCn3ccnc3)no2)cc1` [Derivative (120), 5-(4-amino-phenyl)-isoxazole-3-carboxylic acid (3-imidazol-1-yl-propyl)-amide], for which the Emax at 120 µM came to 246%.

With `O=C(NCCn1cncn1)c1cc(-c2cccs2)on1` [Derivative (135), 5-thiophen-2-yl-isoxazole-3-carboxylic acid (2-[1,2,4]triazol-1-yl-ethyl)-amide], the Emax at 120 µM is 945%.

For the compound `O=C(NCCCn1ccnc1)c1cc(-c2ccc(Br)s2)on1` [Derivative (143), 5-(5-bromo-thiophen-2-yl)-isoxazole-3-carboxylic acid (3-imidazol-1-yl-propyl)-amide], the Emax at 120 µM was found to be 93%.

Regarding `O=C(NCCCn1ccnc1)c1cc(-c2ccoc2)on1` [Derivative (152), 5-furan-3-yl-isoxazole-3-carboxylic acid (3-imidazol-1-yl-propyl)-amide], the Emax at 120 µM turned out to be 374%.

`O=C(NCCn1cncn1)c1cc(-c2ccsc2)on1` [Derivative (158), 5-thiophen-3-yl-isoxazole-3-carboxylic acid (2-[1,2,4]-triazol-1-yl-ethyl)-amide]: the Emax at 120 µM is 414%.

Take `O=C(NCCN1CCCCC1)c1cc(-c2ccco2)on1` [Derivative (174), 5-furan-2-yl-isoxazole-3-carboxylic acid (2-piperidin-1-yl-ethyl)-amide]: the Emax at 120 µM came to 79%.

As for `O=C(OCc1cc(-c2ccco2)on1)n1ccnc1` [Derivative (251), imidazole-1-carboxylic acid 5-furan-2-yl-isoxazol-3-ylmethyl ester], the Emax at 120 µM stood at 35%.

On to `CC(=O)N1CCN(C(=O)OCc2cc(-c3ccco3)on2)CC1` [Derivative (252), 4-acetyl-piperazine-1-carboxylic acid 5-furan-2-yl-isoxazol-3-ylmethyl ester], for which the Emax at 120 µM worked out at 49%.

Turning to `O=C(NCc1ccncc1)OCc1cc(-c2ccco2)on1` [Derivative (254), pyridin-4-ylmethyl-carbamic acid 5-furan-2-yl-isoxazol-3-ylmethyl ester], the Emax at 120 µM is 37%.
